According to patent US20200392158A1, “INHIBITORS OF LEUCINE RICH REPEAT KINASE 2” (GLAXOSMITHKLINE INTELLECTUAL PROPERTY DEVELOPMENT LIMITED, priority 2017, published 2020):

Tests used:
[1] = biological target: T1, full length G2019 human LRRK2 (Homo sapiens, UniProt Q5S007, R50H); test: Full length G2019 human LRRK2 inhibition mass spectrometry assay; assay type: biochemical; details: LRRKtide to phospho-LRRKtide conversion, RapidFire MS, 2 mM ATP
T1 construct: made in house; host or cells: HEK293 6E cells transduced with BacMam virus (virus generated in Sf9 cells)
T1 sequence (Q5S007 with tags, fused parts or gaps R50H): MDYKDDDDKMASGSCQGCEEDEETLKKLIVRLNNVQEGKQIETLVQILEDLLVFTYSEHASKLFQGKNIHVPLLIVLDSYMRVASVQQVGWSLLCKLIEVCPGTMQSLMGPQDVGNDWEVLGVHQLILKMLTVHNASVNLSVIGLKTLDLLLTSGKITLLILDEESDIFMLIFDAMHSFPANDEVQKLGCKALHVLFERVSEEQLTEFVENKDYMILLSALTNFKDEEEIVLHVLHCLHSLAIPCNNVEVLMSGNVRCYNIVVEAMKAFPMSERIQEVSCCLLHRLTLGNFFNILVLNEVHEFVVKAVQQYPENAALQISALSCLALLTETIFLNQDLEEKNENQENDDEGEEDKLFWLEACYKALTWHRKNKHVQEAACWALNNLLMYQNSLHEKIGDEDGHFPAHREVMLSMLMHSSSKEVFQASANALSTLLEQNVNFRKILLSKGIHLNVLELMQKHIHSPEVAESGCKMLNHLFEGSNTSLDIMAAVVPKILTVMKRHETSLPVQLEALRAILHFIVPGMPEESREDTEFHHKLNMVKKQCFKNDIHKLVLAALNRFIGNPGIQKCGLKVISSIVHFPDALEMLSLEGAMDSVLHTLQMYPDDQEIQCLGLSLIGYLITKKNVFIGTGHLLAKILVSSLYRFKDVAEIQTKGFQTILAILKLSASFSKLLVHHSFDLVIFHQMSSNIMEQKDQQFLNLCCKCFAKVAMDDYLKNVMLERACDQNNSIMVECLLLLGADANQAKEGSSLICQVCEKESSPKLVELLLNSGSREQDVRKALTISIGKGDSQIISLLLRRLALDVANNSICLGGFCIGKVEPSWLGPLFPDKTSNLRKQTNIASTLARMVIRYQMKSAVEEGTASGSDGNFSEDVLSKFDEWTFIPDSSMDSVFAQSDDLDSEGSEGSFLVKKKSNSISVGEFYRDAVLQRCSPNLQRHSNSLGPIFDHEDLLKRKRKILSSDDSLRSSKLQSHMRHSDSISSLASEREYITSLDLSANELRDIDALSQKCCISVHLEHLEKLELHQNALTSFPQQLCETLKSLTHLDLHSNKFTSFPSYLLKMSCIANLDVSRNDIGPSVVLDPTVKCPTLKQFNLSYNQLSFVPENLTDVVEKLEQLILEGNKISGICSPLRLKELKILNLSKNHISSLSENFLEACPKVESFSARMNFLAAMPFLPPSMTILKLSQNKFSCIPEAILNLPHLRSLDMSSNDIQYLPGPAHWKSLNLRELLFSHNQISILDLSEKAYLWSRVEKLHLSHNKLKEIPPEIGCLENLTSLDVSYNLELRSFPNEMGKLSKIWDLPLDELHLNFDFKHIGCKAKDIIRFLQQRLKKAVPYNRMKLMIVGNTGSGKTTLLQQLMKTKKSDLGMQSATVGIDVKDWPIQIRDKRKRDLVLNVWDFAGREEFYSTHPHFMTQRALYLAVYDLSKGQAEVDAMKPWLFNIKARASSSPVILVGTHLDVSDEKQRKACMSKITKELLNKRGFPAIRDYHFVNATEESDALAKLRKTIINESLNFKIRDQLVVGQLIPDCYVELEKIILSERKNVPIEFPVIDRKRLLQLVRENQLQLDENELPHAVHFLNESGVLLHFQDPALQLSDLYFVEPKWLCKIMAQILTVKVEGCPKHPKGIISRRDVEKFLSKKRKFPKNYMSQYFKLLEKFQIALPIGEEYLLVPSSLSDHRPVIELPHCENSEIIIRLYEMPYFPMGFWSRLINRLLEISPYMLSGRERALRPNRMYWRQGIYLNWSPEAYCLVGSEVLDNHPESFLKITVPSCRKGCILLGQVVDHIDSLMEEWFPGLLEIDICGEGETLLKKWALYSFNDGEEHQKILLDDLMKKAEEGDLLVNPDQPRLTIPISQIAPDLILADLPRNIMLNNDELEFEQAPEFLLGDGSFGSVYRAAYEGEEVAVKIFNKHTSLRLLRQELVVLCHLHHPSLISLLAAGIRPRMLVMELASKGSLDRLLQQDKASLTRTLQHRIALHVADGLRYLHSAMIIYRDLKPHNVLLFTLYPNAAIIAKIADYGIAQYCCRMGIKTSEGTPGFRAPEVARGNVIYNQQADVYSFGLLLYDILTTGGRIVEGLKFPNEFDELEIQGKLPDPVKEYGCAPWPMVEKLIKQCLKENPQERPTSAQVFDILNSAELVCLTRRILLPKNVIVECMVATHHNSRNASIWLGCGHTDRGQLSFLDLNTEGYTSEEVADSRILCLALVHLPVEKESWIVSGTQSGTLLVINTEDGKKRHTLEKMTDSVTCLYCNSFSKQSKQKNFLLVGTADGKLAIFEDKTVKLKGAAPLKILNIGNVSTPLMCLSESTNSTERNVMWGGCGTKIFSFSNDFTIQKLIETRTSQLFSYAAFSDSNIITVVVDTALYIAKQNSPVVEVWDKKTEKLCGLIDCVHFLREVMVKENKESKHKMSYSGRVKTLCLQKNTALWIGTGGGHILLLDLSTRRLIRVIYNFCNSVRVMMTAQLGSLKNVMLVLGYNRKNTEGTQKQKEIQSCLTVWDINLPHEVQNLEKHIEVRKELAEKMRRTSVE
How it was run: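 Purified full-length Flag-tagged G2019 LRRK2, ~25 nM, with 25 μM LRRKtide and 2 mM ATP in 50 mM Hepes pH 7.2, 10 mM MgCl2, 150 mM NaCl, 1 h at room temperature. Quenched with formic acid; phospho- and unphosphorylated LRRKtide measured by RapidFire MS. pIC50 from 4-parameter fit of % conversion, 11 points, top 100 μM.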

[2] = biological target: T2, LRRK2 kinase in SH-SY5Y cells over-expressing recombinant full length LRRK2 (Homo sapiens, UniProt Q5S007); test: Recombinant cellular LRRK2 AlphaScreen assay (LRRK2 Ser935 phosphorylation); assay type: cell-based; details: 60 min
T2 construct: A BacMam virus expressing full length recombinant LRRK2 was purchased from Invitrogen; host or cells: SH-SY5Y human neuroblastoma cells transduced with BacMam LRRK2 virus
T2 sequence (Q5S007 whole entry): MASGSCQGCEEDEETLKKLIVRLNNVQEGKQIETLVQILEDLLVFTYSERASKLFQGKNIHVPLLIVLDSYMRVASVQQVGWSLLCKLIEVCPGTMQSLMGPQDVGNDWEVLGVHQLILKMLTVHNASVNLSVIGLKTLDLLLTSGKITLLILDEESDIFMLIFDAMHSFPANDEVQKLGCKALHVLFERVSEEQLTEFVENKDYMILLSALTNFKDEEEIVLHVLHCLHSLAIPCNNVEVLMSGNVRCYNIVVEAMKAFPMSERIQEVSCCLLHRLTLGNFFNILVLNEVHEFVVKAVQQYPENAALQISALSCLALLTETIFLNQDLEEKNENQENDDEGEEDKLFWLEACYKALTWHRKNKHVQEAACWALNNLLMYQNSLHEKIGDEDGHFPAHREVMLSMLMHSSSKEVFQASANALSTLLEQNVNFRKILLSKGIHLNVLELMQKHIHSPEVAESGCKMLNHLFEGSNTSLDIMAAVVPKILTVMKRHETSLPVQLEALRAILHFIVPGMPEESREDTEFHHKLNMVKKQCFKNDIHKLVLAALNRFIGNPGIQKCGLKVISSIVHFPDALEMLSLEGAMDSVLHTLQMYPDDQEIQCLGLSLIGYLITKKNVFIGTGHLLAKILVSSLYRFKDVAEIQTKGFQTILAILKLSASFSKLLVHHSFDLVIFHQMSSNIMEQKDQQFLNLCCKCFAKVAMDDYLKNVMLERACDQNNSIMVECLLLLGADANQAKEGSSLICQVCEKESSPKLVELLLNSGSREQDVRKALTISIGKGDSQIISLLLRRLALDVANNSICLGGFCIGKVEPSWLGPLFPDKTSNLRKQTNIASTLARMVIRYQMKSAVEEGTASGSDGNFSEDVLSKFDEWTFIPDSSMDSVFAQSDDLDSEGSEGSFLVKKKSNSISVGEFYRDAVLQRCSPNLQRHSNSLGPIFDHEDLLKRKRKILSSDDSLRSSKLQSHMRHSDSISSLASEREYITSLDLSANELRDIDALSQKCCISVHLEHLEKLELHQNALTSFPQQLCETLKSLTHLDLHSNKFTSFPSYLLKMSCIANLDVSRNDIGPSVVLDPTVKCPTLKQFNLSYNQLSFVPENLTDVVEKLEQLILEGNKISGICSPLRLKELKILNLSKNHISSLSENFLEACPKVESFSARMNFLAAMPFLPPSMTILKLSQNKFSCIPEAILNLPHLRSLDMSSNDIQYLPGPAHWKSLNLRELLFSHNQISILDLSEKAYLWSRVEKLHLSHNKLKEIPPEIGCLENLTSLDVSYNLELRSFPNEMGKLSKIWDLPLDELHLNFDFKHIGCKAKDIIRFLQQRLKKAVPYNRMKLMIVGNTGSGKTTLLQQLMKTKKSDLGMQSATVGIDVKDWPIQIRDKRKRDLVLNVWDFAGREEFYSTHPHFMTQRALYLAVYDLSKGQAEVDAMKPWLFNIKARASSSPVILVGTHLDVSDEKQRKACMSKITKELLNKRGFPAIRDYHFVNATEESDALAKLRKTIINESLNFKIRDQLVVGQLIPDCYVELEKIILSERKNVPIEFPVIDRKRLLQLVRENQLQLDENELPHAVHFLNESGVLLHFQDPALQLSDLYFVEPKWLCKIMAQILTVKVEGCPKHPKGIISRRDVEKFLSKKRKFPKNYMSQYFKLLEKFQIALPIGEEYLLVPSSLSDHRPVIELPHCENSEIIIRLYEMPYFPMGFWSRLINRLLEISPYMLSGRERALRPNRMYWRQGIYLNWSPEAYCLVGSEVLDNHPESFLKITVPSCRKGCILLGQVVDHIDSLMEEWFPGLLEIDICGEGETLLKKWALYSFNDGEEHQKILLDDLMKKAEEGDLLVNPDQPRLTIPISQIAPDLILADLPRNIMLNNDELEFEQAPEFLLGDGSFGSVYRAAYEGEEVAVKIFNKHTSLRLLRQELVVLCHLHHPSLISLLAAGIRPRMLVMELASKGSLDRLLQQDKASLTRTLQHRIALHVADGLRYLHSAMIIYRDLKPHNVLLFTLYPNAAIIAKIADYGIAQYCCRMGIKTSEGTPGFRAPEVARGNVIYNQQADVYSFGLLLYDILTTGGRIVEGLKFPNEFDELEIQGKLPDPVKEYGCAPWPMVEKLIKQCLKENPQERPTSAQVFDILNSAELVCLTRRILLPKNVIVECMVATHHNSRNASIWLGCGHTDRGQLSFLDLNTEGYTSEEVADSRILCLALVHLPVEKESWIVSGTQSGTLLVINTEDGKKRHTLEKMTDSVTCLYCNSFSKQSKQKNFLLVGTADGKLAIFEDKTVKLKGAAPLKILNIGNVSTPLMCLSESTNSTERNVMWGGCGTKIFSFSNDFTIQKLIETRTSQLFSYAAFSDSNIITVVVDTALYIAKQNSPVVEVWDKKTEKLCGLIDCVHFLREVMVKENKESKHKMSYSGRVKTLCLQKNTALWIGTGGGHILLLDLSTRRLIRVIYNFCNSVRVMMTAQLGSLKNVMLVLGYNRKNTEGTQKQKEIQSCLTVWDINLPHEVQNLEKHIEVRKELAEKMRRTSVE
How it was run: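 SH-SY5Y cells transduced with BacMam full-length LRRK2 (MOI 50) for 24 h, then treated 60 min at 37 °C with compound (11-point 1:4 series, top 10 uM, 0.1% DMSO). Lysates probed by AlphaScreen for pSer935 vs total LRRK2; values fitted to a sigmoidal dose-response model.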

SMILES | IC50 [1] [nM] | IC50 [2] [nM]
COC1CNc2nc(ncc2C(F)(F)F)Nc2c(nn(C3CCOCC3)c2C)OC1 (single isomer, unassigned) [E121, 10-methoxy-4-methyl-5-(oxan-4-yl)-14-(trifluoromethyl)-8-oxa-2,5,6,12,16,17-hexaazatricyclo[11.3.1.0^3,7] heptadeca-1(16),3,6,13(17),14-pentaene] | ≤ 100 | ≤ 100
Cc1c2c(nn1C1CCOC1)OCCCNc1nc(ncc1Cl)N2 (single isomer, unassigned) [E123, 14-chloro-4-methyl-5-(oxolan-3-yl)-8-oxa-2,5,6,12,16,17-hexaazatricyclo[11.3.1.0^3,7]heptadeca-1(16),3,6,13(17), 14-pentaene] | ≤ 100 | ≤ 100
Cc1c2c(nn1C1CCOC1)OCCCNc1nc(ncc1C(F)(F)F)N2 (single isomer, unassigned) [E127, 4-methyl-5-(oxolan-3-yl)-14-(trifluoromethyl)-8-oxa-2,5,6,12,16,17-hexaazatricyclo[11.3.1.0^3,7]heptadeca-1(16),3,6,13(17),14-pentaene] | ≤ 100 | ≤ 100
Cc1c2c(nn1C1CCOCC1)OCC(C)CNc1nc(ncc1Cl)N2 (single isomer, unassigned) [E136, 14-chloro-4,10-dimethyl-5-(oxan-4-yl)-8-oxa-2,5,6,12,16,17-hexaazatricyclo[11.3.1.0^3,7]heptadeca-1(16),3,6,13(17),14-pentaene] | ≤ 100 | ≤ 100
Clc1cnc2nc1NCCCOc1nn(C3CCOC3)c(Cl)c1N2 (single isomer, unassigned) [E145, 4,14-Dichloro-5-(oxolan-3-yl)-8-oxa-2,5,6,12, 16,17-hexaaza tricyclo[11.3.1.0^3,7]heptadeca-1(16),3,6,13(17), 14-pentaene] | ≤ 100 | ≤ 100
Cc1c2c(nn1C(C)C1CCOCC1)OCCC(C)Nc1nc(ncc1Cl)N2 (single isomer, unassigned) [E183, 14-Chloro-4,11-dimethyl-5-[1-(oxan-4-yl)ethyl]-8-oxa-2,5,6,12,16,17-hexaazatricyclo[11.3.1.0^3,7]heptadeca-1(16),3,6,13(17),14-pentaene] | ≤ 100 | ≤ 100
Cc1c2c(nn1C(C)C1CCOCC1)OCCCNc1nc(ncc1Cl)N2 (single isomer, unassigned) [E186, 14-Chloro-4-methyl-5-[1-(oxan-4-yl)ethyl]-8-oxa-2,5,6,12,16,17-hexaazatricyclo[11.3.1.0^3,7]heptadeca-1(16), 3,6,13(17),14-pentaene] | ≤ 100 | ≤ 100
Cc1c2c(nn1C1CCOCC1)OCCC(C(F)(F)F)Nc1nc(ncc1Cl)N2 (single isomer, unassigned) [E192, 14-Chloro-4-methyl-5-(oxan-4-yl)-11-(trifluoromethyl)-8-oxa-2,5,6,12,16,17-hexaazatricyclo[11.3.1.0^3,7] heptadeca-1(16),3,6,13(17),14-pentaene] | ≤ 100 | ≤ 100
COC1CNc2nc(ncc2Cl)Nc2c(nn(C3CC(C)OC(C)C3)c2C)OC1 (single isomer, unassigned) [E198, 14-Chloro-5-(2,6-dimethyloxan-4-yl)-10-methoxy-4-methyl-8-oxa-2,5,6,12,16,17-hexaazatricyclo[11.3.1.0^3,7] heptadeca-1(16),3,6,13(17),14-pentaene] | ≤ 100 | ≤ 100
Cc1c2c(nn1CCN1C[C@H]3C[C@@H]1CO3)OCCC(C)Nc1nc(ncc1Cl)N2 (single isomer, unassigned) [E208] | ≤ 100 | ≤ 100
Cc1c2c(nn1CCN1CCOCC1)OCCC(C)Nc1nc(ncc1Cl)N2 (single isomer, unassigned) [E213, 14-Chloro-4,11-dimethyl-5-[2-(morpholin-4-yl)ethyl]-8-oxa-2,5,6,12,16,17-hexaazatricyclo[11.3.1.0^3,7] heptadeca-1(16),3,6,13(17),14-pentaene] | ≤ 100 | ≤ 100
Cc1c2c(nn1CCN1CCC(F)(F)C1)OCCC(C)Nc1nc(ncc1Cl)N2 (single isomer, unassigned) [E215, 14-Chloro-5-[2-(3,3-difluoropyrrolidin-1-yl)ethyl]-4,11-dimethyl-8-oxa-2,5,6,12,16,17-hexaazatricyclo [11.3.1.0^3,7]heptadeca-1(16),3,6,13(17),14-pentaene] | ≤ 100 | ≤ 100
Cc1c2c(nn1CCN1CCC(F)C1)OCCC(C)Nc1nc(ncc1Cl)N2 (single isomer, unassigned) [E218, 14-Chloro-5-[2-(3-fluoropyrrolidin-1-yl)ethyl]-4,11-dimethyl-8-oxa-2,5,6,12,16,17-hexaazatricyclo [11.3.1.0^3,7] heptadeca-1(16),3,6,13(17),14-pentaene] | ≤ 100 | ≤ 100
Cc1c2c(nn1C1CC3CCC(C1)O3)OCCCNc1nc(ncc1Cl)N2 (single isomer, unassigned) [E243, 14-Chloro-4-methyl-5-{8-oxabicyclo[3.2.1]octan-3-yl}-8-oxa-2,5,6,12,16,17-hexaazatricyclo[11.3.1.0^3,7] heptadeca-1(16),3,6,13(17),14-pentaene] | ≤ 100 | ≤ 100
COC1CNc2nc(ncc2Cl)Nc2c(nn(C3CC4CCC(C3)O4)c2C)OC1 (single isomer, unassigned) [E245, 14-Chloro-10-methoxy-4-methyl-5-{8-oxabicyclo[3.2.1]octan-3-yl}-8-oxa-2,5,6,12,16,17-hexaazatricyclo [11.3.1.0^3,7]heptadeca-1(16),3,6,13(17),14-pentaene] | ≤ 100 | ≤ 100
Cc1c2c(nn1C1CCC(C)CC1)OCCC(C)Nc1nc(ncc1Cl)N2 (single isomer, unassigned) [E259, 14-Chloro-4,11-dimethyl-5-(4-methylcyclohexyl)-8-oxa-2,5,6,12,16,17-hexaazatricyclo[11.3.1.0^3,7] heptadeca-1(16),3,6,13(17),14-pentaene] | ≤ 100 | ≤ 100
Cc1c2c(nn1CC(C)(C)O)OCCC(C)Nc1nc(ncc1Cl)N2 (single isomer, unassigned) [E265, 1-{14-Chloro-4,11-dimethyl-8-oxa-2,5,6,12,16,17-hexaazatricyclo[11.3.1.0^3,7]heptadeca-1(17),3,6,13,15-pentaen-5-yl}-2-methylpropan-2-ol] | ≤ 100 | ≤ 100
COC1CNc2nc(ncc2Cl)Nc2c(nn(C3COC3)c2C)OC1 (single isomer, unassigned) [E270, 14-Chloro-10-methoxy-4-methyl-5-(oxetan-3-yl)-8-oxa-2,5,6,12,16,17-hexaazatricyclo[11.3.1.0^3,7]heptadeca-1(16),3,6,13(17),14-pentaene] | ≤ 100 | ≤ 100
COC1CNc2nc(ncc2Cl)Nc2c(nn(CC3CCOCC3)c2C)OC1 (single isomer, unassigned) [E274, 14-Chloro-10-methoxy-4-methyl-5-(oxan-4-ylmethyl)-8-oxa-2,5,6,12,16,17-hexaazatricyclo[11.3.1.0^3,7] heptadeca-1(16),3,6,13(17),14-pentaene] | ≤ 100 | ≤ 100
COC1CNc2nc(ncc2Cl)Nc2c(nn(C3CCC(C(F)(F)F)CC3)c2C)OC1 (single isomer, unassigned) [E278, 14-Chloro-10-methoxy-4-methyl-5-[4-(trifluoromethyl)cyclohexyl]-8-oxa-2,5,6,12,16,17-hexaazatricyclo [11.3. 1.0^3,7]heptadeca-1(16),3,6,13(17),14-pentaene] | ≤ 100 | ≤ 100
CCOC1CNc2nc(ncc2Cl)Nc2c(nn(C3CCOCC3)c2C)OC1 (single isomer, unassigned) [E287, 14-Chloro-10-ethoxy-4-methyl-5-(oxan-4-yl)-8-oxa-2,5,6,12,16,17-hexaazatricyclo[11.3.1.0^3,7]heptadeca-1(16),3,6,13(17),14-pentaene] | ≤ 100 | ≤ 100
Cc1c2c(nn1C1CCOCC1)OCCC(C)Nc1nc(ncc1C(F)(F)F)N2 (single isomer, unassigned) [E291, 4,11-Dimethyl-5-(oxan-4-yl)-14-(trifluoromethyl) -8-oxa-2,5,6,12,16,17-hexaazatricyclo[11.3.1.0^3,7]heptadeca-1(16),3,6,13(17),14-pentaene] | ≤ 100 | ≤ 100
Cc1c2c(nn1C1CCOCC1)OCCC(C1CC1)Nc1nc(ncc1Cl)N2 (single isomer, unassigned) [E293, 14-Chloro-11-cyclopropyl-4-methyl-5-(oxan-4-yl)-8-oxa-2,5,6,12,16,17-hexaazatricyclo[11.3.1.0^3,7]heptadeca-1(16),3,6,13(17),14-pentaene] | ≤ 100 | ≤ 100
Cc1c2c(nn1C1COCCC1(F)F)OCCCNc1nc(ncc1Cl)N2 (single isomer, unassigned) [E302, 14-Chloro-5-(4,4-difluorooxan-3-yl)-4-methyl-8-oxa-2,5,6,12,16,17-hexaazatricyclo[11.3.1.0^3,7]heptadeca-1(16),3,6,13(17),14-pentaene] | ≤ 100 | ≤ 100
Cc1c2c(nn1C1COCCC1(F)F)OCC[C@@H](C)Nc1nc(ncc1Cl)N2 (single isomer, unassigned) [E305] | ≤ 100 | ≤ 100
